From ChEMBL document CHEMBL3425446, “Isolation, semi-synthesis and bio-evaluation of spatane derivatives from the brown algae Stoechospermum marginatum” (Bioorg Med Chem Lett, 2015)
In brackets after ≈: the same amount, converted by molar mass.

Key:
Micrococcus luteus [1] = assay: Antibacterial activity against Micrococcus luteus assessed as growth inhibition at 0.5 mg/ml after 24 hrs by well diffusion method; type: functional; conditions: read-out: DIZ
THP-1 = assay: Cytotoxicity against human THP1 cells assessed as decrease in cell number after 24 hrs by MTT assay; type: functional, cell-based; conditions: THP-1, 24 h
[2] = Cytotoxicity against human HL60 cells assessed as decrease in cell number after 24 hrs by MTT assay; type: functional, cell-based; conditions: HL-60, 24 h
Escherichia coli [3] = assay: Antibacterial activity against Escherichia coli assessed as growth inhibition at 0.5 mg/ml after 24 hrs by well diffusion method; type: functional; conditions: read-out: DIZ
[4] = Cytotoxicity against human U937 cells assessed as decrease in cell number after 24 hrs by MTT assay; type: functional, cell-based; conditions: U-937, 24 h
Bacillus subtilis [5] = assay: Antibacterial activity against Bacillus subtilis assessed as compound concentration required to complete growth inhibition at 8 hrs by tube dilution method; type: functional
[6] = Cytotoxicity against mouse B16F10 cells assessed as decrease in cell number after 24 hrs by MTT assay; type: functional, cell-based; conditions: B16-F10, 24 h
Micrococcus luteus [7] = assay: Antibacterial activity against Micrococcus luteus assessed as compound concentration required to complete growth inhibition at 8 hrs by tube dilution method; type: functional
Klebsiella pneumoniae [8] = assay: Antibacterial activity against Klebsiella pneumoniae assessed as growth inhibition at 0.5 mg/ml after 24 hrs by well diffusion method; type: functional; conditions: read-out: DIZ
Escherichia coli [9] = assay: Antibacterial activity against Escherichia coli assessed as compound concentration required to complete growth inhibition at 8 hrs by tube dilution method; type: functional
Klebsiella pneumoniae [10] = assay: Antibacterial activity against Klebsiella pneumoniae assessed as compound concentration required to complete growth inhibition at 8 hrs by tube dilution method; type: functional
COLO 205 = assay: Cytotoxicity against human COLO205 cells assessed as decrease in cell number after 24 hrs by MTT assay; type: functional, cell-based; conditions: COLO 205, 24 h
Bacillus subtilis [11] = assay: Antibacterial activity against Bacillus subtilis assessed as growth inhibition at 0.5 mg/ml after 24 hrs by well diffusion method; type: functional; conditions: read-out: DIZ

Structure (SMILES)	MIC (Bacillus subtilis [5])	MIC (Micrococcus luteus [7])	MIC (Escherichia coli [9])	MIC (Klebsiella pneumoniae [10])	zone of inhibition at 500 µg/mL (Micrococcus luteus [1])	IC50 (THP-1)	IC50 [2]	zone of inhibition at 500 µg/mL (Escherichia coli [3])	IC50 [4]	IC50 [6]	zone of inhibition at 500 µg/mL (Klebsiella pneumoniae [8])	IC50 (COLO 205)	zone of inhibition at 500 µg/mL (Bacillus subtilis [11])
C=C(C(=O)/C=C/C(C)(O)COC(C)=O)[C@@H]1C[C@@H](OC(C)=O)[C@@]2(C)[C@@H]1[C@@H]1[C@H](C)CC[C@@H]12 (stereo partly drawn)	100 µg/mL (≈ 239 µM)	100 µg/mL (≈ 239 µM)	200 µg/mL (≈ 478 µM)	200 µg/mL (≈ 478 µM)	21.7 mm	33.9 µg/mL (≈ 80.9 µM)	35.6 µg/mL (≈ 85.1 µM)	23.7 mm	8.8 µg/mL (≈ 21 µM)	4.41 µg/mL (≈ 10.5 µM)	19.7 mm	26.8 µg/mL (≈ 64 µM)	21.7 mm
COc1cc([C@@H]2c3cc4c(cc3[C@@H](O[C@@H]3O[C@@H]5CO[C@@H](C)O[C@H]5[C@H](O)[C@H]3O)[C@H]3COC(=O)[C@H]23)OCO4)cc(OC)c1O [ETOPOSIDE]						5.02 µg/mL (≈ 8.53 µM)	2.12 µg/mL (≈ 3.6 µM)		2.27 µg/mL (≈ 3.86 µM)	4.12 µg/mL (≈ 7 µM)		1.07 µg/mL (≈ 1.82 µM)	
CN[C@@H]1[C@H](O[C@H]2[C@H](O[C@H]3[C@H](O)[C@@H](O)[C@H](N=C(N)N)[C@@H](O)[C@@H]3N=C(N)N)O[C@@H](C)[C@]2(O)C=O)O[C@@H](CO)[C@H](O)[C@H]1O.CN[C@@H]1[C@H](O[C@H]2[C@H](O[C@H]3[C@H](O)[C@@H](O)[C@H](N=C(N)N)[C@@H](O)[C@@H]3N=C(N)N)O[C@@H](C)[C@]2(O)C=O)O[C@@H](CO)[C@H](O)[C@H]1O.O=S(=O)(O)O.O=S(=O)(O)O.O=S(=O)(O)O [STREPTOMYCIN SULFATE]	6.25 µg/mL	6.25 µg/mL	6.25 µg/mL	6.25 µg/mL	28.7 mm			30.3 mm			27.3 mm		28.7 mm

Continued, in another order:

MIC (Bacillus subtilis [5])	MIC (Micrococcus luteus [7])	MIC (Escherichia coli [9])	MIC (Klebsiella pneumoniae [10])	Structure (SMILES)	zone of inhibition at 500 µg/mL (Micrococcus luteus [1])	IC50 (THP-1)	IC50 [2]	zone of inhibition at 500 µg/mL (Escherichia coli [3])	IC50 [4]	IC50 [6]	zone of inhibition at 500 µg/mL (Klebsiella pneumoniae [8])	IC50 (COLO 205)	zone of inhibition at 500 µg/mL (Bacillus subtilis [11])
200 µg/mL (≈ 657 µM)	200 µg/mL (≈ 657 µM)	200 µg/mL (≈ 657 µM)	100 µg/mL (≈ 328 µM)	C=C(C(O)/C=C/C(C)=O)[C@@H]1C[C@@H](O)[C@@]2(C)[C@@H]1[C@@H]1[C@H](C)CC[C@@H]12 (stereo partly drawn)	12.7 mm	38.9 µg/mL (≈ 128 µM)	42.3 µg/mL (≈ 139 µM)	17.3 mm	13 µg/mL (≈ 42.8 µM)	17 µg/mL (≈ 55.9 µM)	11.7 mm	42.1 µg/mL (≈ 138 µM)	12 mm
100 µg/mL (≈ 266 µM)	50 µg/mL (≈ 133 µM)	100 µg/mL (≈ 266 µM)	100 µg/mL (≈ 266 µM)	C=C(C(=O)/C=C/C(C)(O)COC(C)=O)[C@@H]1C[C@@H](O)[C@@]2(C)[C@@H]1[C@@H]1[C@H](C)CC[C@@H]12 (stereo partly drawn)	16.7 mm	15.2 µg/mL (≈ 40.3 µM)	51.8 µg/mL (≈ 138 µM)	17 mm	9.58 µg/mL (≈ 25.4 µM)	3.28 µg/mL (≈ 8.71 µM)	14 mm	35.1 µg/mL (≈ 93.3 µM)	15.7 mm
100 µg/mL (≈ 328 µM)	100 µg/mL (≈ 328 µM)	100 µg/mL (≈ 328 µM)	50 µg/mL (≈ 164 µM)	C=C(C[C@@H](O)C=C(C)C)[C@@H]1C[C@@H](O)[C@@]2(C)[C@@H]1[C@@H]1[C@H](C)CC[C@@H]12	14 mm	53 µg/mL (≈ 174 µM)	41.6 µg/mL (≈ 137 µM)	12.3 mm	51.3 µg/mL (≈ 168 µM)	46.7 µg/mL (≈ 153 µM)	16.7 mm	72.2 µg/mL (≈ 237 µM)	13.7 mm
400 µg/mL (≈ 1150 µM)	200 µg/mL (≈ 577 µM)	200 µg/mL (≈ 577 µM)	200 µg/mL (≈ 577 µM)	C=C(CC(C=C(C)C)OC(C)=O)[C@@H]1C[C@@H](O)[C@@]2(C)[C@@H]1[C@@H]1[C@H](C)CC[C@@H]12 (stereo partly drawn)	10.3 mm	50.3 µg/mL (≈ 145 µM)	198 µg/mL (≈ 572 µM)	10.7 mm	60 µg/mL (≈ 173 µM)	73.2 µg/mL (≈ 211 µM)	11.7 mm	87.3 µg/mL (≈ 252 µM)	0 mm
